Experimental findings from PMC5064022, “KCNE1 induces fenestration in the Kv7.1/KCNE1 channel complex that allows for highly specific pharmacological targeting” (Nature Communications, 2016) are described below.

What all share (type): cell-based
Assay [1] concerns T1, Kv7.2.
T1 construct: expressed in transfected cells
Nature of the assay: TEVC, Kv7.2 channels. As to conditions: 1 μM.

Assay [2] has as its target V241A/KCNE1 (Homo sapiens, UniProt P15382+P51787, V241A). In words: TEVC, mutant channel V241A/KCNE1 in oocytes. As to conditions: Kv7.1 V241A mutant with KCNE1. From the text: (§1) Ala scanning was previously used to identify specific residues that form the putative binding sites for chromanol and benzodiazepine derivatives that are considered to be classical pore blockers of Kv7.1 channels. Here we applied Ala scanning to multiple segments of the Kv7.1 α-subunit to identify potential AC-1 interaction sites in the extended pore region of Kv7.1/KCNE1 channels (Fig. 3a). In cases where mutation to Ala precluded channel function, alternative residues were introduced. […] Instead, most of these crucial residues cluster around a ‘window' formed uniquely in the preopen–closed state model of the Kv7.1/KCNE1 channel[33] (Fig. 3c, magenta residues). […]
(§2) Template cDNAs (wildtype or mutant human Kv7.1 in pSGEM, wildtype human KCNE1 in pSP64) were linearized with a suitable restriction enzyme (Nhe I/pSGEM, Eco RI/pSP64). cRNA was synthesized from 1 μg linearized cDNA by in vitro transcription (mMessage mMachine T7 or SP6 kit, Ambion, Life Technologies Darmstadt, Germany). cRNA concentrations were determined by photometry (Nanodrop, Peqlab, Erlangen, Germany) and cRNA quality was checked by agarose gel electrophoresis. […]
(§3) TEVC measurements were performed using a TurboTec-10CD amplifier (npi Electronic, Tamm, Germany) and an ITC-16 AD/DA-interface (Instrutech Corporation, Port Washington, New York, USA). […] Tail currents were recorded at −120 mV. […]

Assay [3] deals with I337V/KCNE1 (Homo sapiens, UniProt P15382+P51787, I337V). In words: TEVC, mutant channel I337V/KCNE1 in oocytes. As to conditions: Kv7.1 I337V mutant with KCNE1.
Excerpt: as §1, §2, §3

The target in assay [4] is Kv7.1/KCNE1 (Homo sapiens, UniProt P15382+P51787). In words: Two electrode voltage clamp of Kv7.1/KCNE1 currents in Xenopus oocytes. Here is the method:
Template cDNAs (wildtype or mutant human Kv7.1 in pSGEM, wildtype human KCNE1 in pSP64) were linearized with a suitable restriction enzyme (Nhe I/pSGEM, Eco RI/pSP64). cRNA was synthesized from 1 μg linearized cDNA by in vitro transcription (mMessage mMachine T7 or SP6 kit, Ambion, Life Technologies Darmstadt, Germany). cRNA concentrations were determined by photometry (Nanodrop, Peqlab, Erlangen, Germany) and cRNA quality was checked by agarose gel electrophoresis.
Oocytes were commercially obtained from EcoCyte Bioscience (Castrop-Rauxel, Germany). Injection of stage 4 or 5 oocytes was performed using a nanoliter injector 2000 (WPI, Berlin, Germany). For standard pharmacological measurements, each oocyte was injected with 5 ng Kv7.1 cRNA alone or with 1 ng KCNE1 cRNA. To investigate the influence of KCNE1 on AC-1 sensitivity of Kv7.1 tetramers, 5 ng Kv7.1 cRNA was injected with different amounts of KCNE1 cRNA (0 ng, 0.005 ng, 0.05 ng, 0.5 ng and 5 ng). Injected oocytes were maintained in an incubator at 17 °C for 4–5 days in standard Barth solution (EcoCyte Bioscience, Castrop-Rauxel, Germany) supplemented with 90 μg ml^−1 theophylline, 63 μg ml^−1 penicillin, 40 μg ml^−1 streptomycin, and 100 μg ml^−1 gentamycin until used for two electrode voltage clamp (TEVC) measurements.
TEVC measurements were performed using a TurboTec-10CD amplifier (npi Electronic, Tamm, Germany) and an ITC-16 AD/DA-interface (Instrutech Corporation, Port Washington, New York, USA). Pulse and PulseFit software (HEKA, Lambrecht/Pfalz, Germany) was used for data acquisition and analysis. During TEVC recordings, oocytes were constantly perfused with control solution (ND96, containing in mM: 96 NaCl, 4 KCl, 1.8 CaCl2, 1 MgCl2, 5 mM HEPES, pH 7.6 supplemented 0.1–0.3% DMSO). AC solutions were freshly prepared in ND96 from a 10 mM DMSO stock solution. Glass capillaries were pulled to a fine point to produce current and voltage electrodes that were back-filled with 3 M KCl. When filled with this solution, electrode resistances ranged from 0.5–1.5 MΩ. Different voltage pulse protocols were used as follows: (1) To study the inhibitory effect of different AC derivatives, Kv7.1/KCNE1 currents were elicited by repetitive 7 s pulses to +40 mV applied every 30 s from a holding potential of −80 mV. (2) To analyse the voltage dependence of channel activation, currents were elicited by 10 s pulses to test voltages between −100 and +60 mV, applied in 20 mV increments from a holding potential of −80 mV. Tail currents were recorded at −120 mV. For control we always expressed KCNE1 alone along mutant channels and mutant currents were only taken into account when it reached at least 2.5- to 3-fold the size of the background Xenopus-Kv7.1/hKCNE1 currents.
Electrophysiological data were analysed using PulseFit software (HEKA, Lambrecht/Pfalz, Germany) and GraphPad Prism (GraphPad Software, Inc., La Jolla, California, USA). Channel inhibition was determined as reduction of whole cell current amplitude at the end of a 7 s test pulse to +40 mV. The concentration of compound that caused half-maximal inhibition (IC50) were determined using the Hill equation: Idrug/Imax=1/(1+[C/IC50]^H), where Idrug is the current amplitude in the presence of the drug, Imax is the current amplitude before drug application, C is the drug concentration and H is the Hill coefficient.
A general note: Two-electrode voltage clamp holds a large cell at a set potential and records current.

Assay [5] concerns Kv7.1/KCNE2–5. Nature of the assay: TEVC, Kv7.1 co-expressed with other KCNE isoforms. As to conditions: 1 μM.
The target in assay [6] is A344C/KCNE1 (Homo sapiens, UniProt P15382+P51787, A344C). Nature of the assay: TEVC, mutant channel A344C/KCNE1 in oocytes. As to conditions: Kv7.1 A344C mutant with KCNE1.
Excerpt: as §1, §2, §3

In general, inhibition refers to how much of the control response was suppressed. Lower therefore signals a weak effect.

Take `CC(C)(Oc1ccc(Cl)cc1)C(=O)NC1C2CC3CC1CC(NS(C)(=O)=O)(C3)C2` (centres unmarked) [AC-1, 2-(4-chlorophenoxy)-2-methyl-N-[5-[(methylsulfonyl)amino]tricyclo[3.3.1.13,7]dec-2-yl]-propanamide]: in assay [1], the “effect on Kv7.2” value was “does not affect”. Further, the IC50 in assay [2] stood at 0.234 ± 0.015 µM; in assay [3], 6 ± 1.6 µM; in assay [4] (wt, currents at end of 7 s pulse to +40 mV, holding −80 mV, oocytes, read-out: IC50 for inhibition of Kv7.1/KCNE1 channel currents), 0.0784 µM; in assay [6] it was 1 ± 0.2 µM. In addition, in assay [4] (300 nM), the “effect on channel activation kinetics” value is reported as “strong deceleration of channel activation”. Moreover, the “effect on rate of current deactivation” value in assay [4] (300 nM, activated by 5 s pulse to +40 mV) is reported as “does not alter the rate of current deactivation”; in assay [4] (300 nM, activated by 5 s pulse to −20 mV) it was “decreases the rate of current deactivation”. Moreover, in assay [4] (10 µM, percent change in current amplitude at end of pulse to +40 mV), the inhibition at 10 µM is 89.2 ± 1.2%. Also, the Hill-coeff. in assay [4] (concentration-response at +40 mV, oocytes) came to 1.2 ± 0.1. Moreover, the “maximum reduction of Kv7.1/KCNE1 channel currents” value in assay [4] (even at concentrations ∼100-fold greater than the IC50) was “about 90%”. Also, the “higher voltages required to elicit measurable channel opening (depolarizing shift of activation)” value in assay [4] (in the presence of AC-1 (300 nM)) is reported as 20–40 mV. In assay [4] (onset of inhibition, single exponential, y=m × log[AC−1]+b), the “slope m of linear fit of τinhibition against AC-1 concentration” value is −1.02±0.19. In assay [5], the “sensitivity of Kv7.1/KCNE2-5 currents” value is recorded as “insensitive”.
